Results published in patent US4156427A, “Injectable male animal sterilant for selectively controlling the function of testes” (priority 1977, dated 1979).
Where two headings read alike, the source gives them in different places.

How the values were obtained:
sexually mature cats = test: Example 16: injection into testes of sexually mature cats; format: in vivo, cat
Procedure: Those animals in Group I were injected in each testis with 0.1 ml of water.
The testosterone level for the cats in Group I was 6.8±0.2 ng/ml, for those in Group II 4.1±0.3 ng/ml and less than 1 ng/ml for those in Group III.

purebred Angus bulls = test: Example 17: injection into testes of Angus bulls, rate of gain and carcass quality; format: in vivo, cattle; conditions: for BODY WEIGHT Final: after one year; for BODY WEIGHT Final / % Fat / % Protein / Rate of Gain: III 500.0 mg tannic acid, IV 500.0 mg ZnSO4.7H2 O, V 250.0 mg + 250.0 mg; for % Fat / % Protein / Rate of Gain / rate of gain vs surgically castrated animals: one year; for Rate of Gain: surgically castrated 1.29; for rate of gain vs surgically castrated animals: vs Group II surgically castrated
Procedure: Ten purebred Angus bulls weighing an average of 400 pounds were divided into five groups, Group I being a control. Each animal in Group I was injected with 5.0 ml of water in each testis. Those in Group II were surgically castrated. The animals in Group III were injected with 500.0 mg of tannic acid, those in Group IV with 500.0 mg of ZnSO4.7H2 O and those in Group V with 250.0 mg of tannic acid and 250.0 mg of ZnSO4.7H2 O.
The animals were fed concentrate and grazed. After one year, they were sacrificed.

weaned male rats = test: Example 12: injection into testes of weaned 30-day old rats; conditions: 60 days, per testis: II 5.0 mg ZnSO4.7H2 O, III 5.0 mg tannic acid, IV 2.5 mg + 2.5 mg
Procedure: Two hundred 30-day old male rats, just weaned, were divided into four groups, Group I being a control. The rats in Group I were injected with 0.05 ml of water into each testis. The rats in Group II were similarly injected with 5.0 mg of ZnSO4.7H2 O, those in Group III with 5.0 mg of tannic acid and those in Group IV with a mixture (Kastrin) containing 2.5 mg tannic acid and 2.5 mg ZnSO4.7H2 O.
Forty of the animals were sacrificed 60 days after treatment. The others were watched for a year.

[1] = system: litter mate dogs, 8 weeks old; test: Example 13: injection into testes of 8 weeks old litter mate dogs; conditions: Group II, 20.0 mg tannic acid buffered to pH 6.5 into each testis
Procedure: Thirty-eight litter mate dogs, 8 weeks old, were divided into four groups. The dogs in Group I were a control and were injected with 0.2 ml of water into each testis. The animals in Group II were similarly treated in each testis with 20.0 mg of tannic acid buffered to a pH of 6.5. Those in Group III were treated with 20 mg of ZnSO4.7H2 O and those in Group IV with a mixture of 10 mg of tannic acid and 10 mg of ZnSO4.7H2 O.

[2] = system: male reproduction of sexually mature rats; test: Example 5: zinc sulfate injected into the testes of sexually mature rats; format: in vivo; conditions: rat, 0.5, 2.5 and 5.0 mg into the testes
Description: Such injection was made into the midline of each testis with a sterilized needle.

spermatogenesis / testis = test: General findings: arrest of spermatogenesis and diffusion of zinc after injection into testis; format: in vivo; conditions: astringent zinc sulfate, injected in testis
Procedure: Recommended dosages, as above mentioned, depend upon the size and species of the animal and upon the desired result. Recommended dosages for sterilization of adult dogs weighing less than 10 kg is 0.25 ml into each testis of a mixture containing between 10.0 and 25.0 mg of tannic acid and 25.0 mg of ZnSO4.7H2 O. For dogs weighing between 10 and 15 kg, the recommended dose is 0.5 ml into each testis of a mixture containing between 10.0 and 50.0 mg of tannic acid and 50.0 mg of ZnSO4.7H2O. For those dogs weighing between 16 and 20 kg, the recommended dose is 1.0 ml into each testis of a mixture containing between 50.0 and 100.0 mg of tannic acid and between 75.0 and 100.0 mg of ZnSO4.7H2 O. For dogs weighing over 20 kg, the recommended dose is 1.0 ml in each testis of a mixture containing between 50.0 and 125.0 mg of tannic acid and 125.0 mg of ZnSO4.7H2 O.
In the case of puppies between 6 and 8 weeks of age, the recommended dose is 0.05 ml into each testis of a mixture containing 2.0 mg of tannic acid and 5.0 mg of ZnSO4.7H2 O. For puppies over 8 weeks but not sexually mature, the dose is preferably 0.08 ml into each of the testes of a mixture containing 7.0 mg of tannic acid and 7.0 mg of ZnSO4.7H2 O. For adult cats, the recommended dose is 0.1 ml into each testis of a mixture containing 10.0 mg of tannic acid and 10.0 mg of ZnSO4.7H2 O. […]

[3] = system: male reproduction of sexually mature rats; conditions: rat
Procedure: This example illustrates the effect of zinc sulfate on male reproduction of sexually mature rats when administered orally.
Three hundred sexually mature rats were divided into three groups, Group I being a control. Group II rats were treated daily with 15.0 mg ZnSO4.7H2 O and Group III rats with 50.0 mg, both groups receiving said treatment for 30 days.
(§1) ZnSO4 solution was made up from ZnSO4 . 7H2 O salt.
Therefore 15 and 50 mgZnSO4 . 7H2 O correspond to 8.42 mg, 28.0

[4] = system: male reproduction of sexually mature rats; conditions: rat; for Testosterone ng/ml serum / Epididymis weight / Prostate weight / Seminal Vesicles weight / Testes weight: i.p.; for Epididymis weight / Prostate weight / Seminal Vesicles weight / Testes weight: sacrificed at 60 days
Procedure: This example illustrates the effect of zinc sulfate on male reproduction of sexually mature rats when administered intraperitoneally.
Four hundred sexually mature rats were divided into four groups, Group I being a control. The rats in Groups II, III and IV were treated daily for 30 days, respectively, with 0.5, 1.0 and 5.0 mg ZnSO4.7H2 O. At the end of 60 days, as in Example 1, the rats were sacrificed.
as §1
Therefore 0.5 mg, 1.0 mg and 5.0 mg ZnSO4 . 7H2 O correspond to
0.28 mg, 0.56 mg and 2.81 mg ZnSO4 respectively.

[5] = system: male reproduction in sexually mature rats; conditions: rat
Procedure: One hundred sexually mature rats were divided into two groups, Group I being a control. Each of the Group II rats was injected with 25 mg ZnSO4.7H2 O into each side of the scrotum.
*Animals were sacrificed 60 days after

[6] = system: male reproduction of sexually mature rats
Procedure: This example illustrates the effect of zinc sulfate on male reproduction of sexually mature rats when administered in the vas diferens.
Eighty sexually mature male rats were divided into four groups, Group I being a control. The rats in Groups II, III and IV were treated by injecting 0.5, 2.5 and 5.0 mg ZnSO4.7H2 O into the vas diferens.
At the end of 60 days, as in the other examples, the rats were sacrificed.

human spermatozoa = conditions: cited from earlier work
[7] = oral, 15 mg ZnSO4.7H2 O daily 30 days
[8] = oral, 50 mg ZnSO4.7H2 O daily 30 days
[9] = oral, 15.0 and 50.0 mg daily 30 days
[10] = 0.5 mg ZnSO4.7H2 O daily 30 days
[11] = 1.0 mg ZnSO4.7H2 O daily 30 days
[12] = 5.0 mg ZnSO4.7H2 O daily 30 days
[13] = i.p., 0.5, 1.0 and 5.0 mg daily 30 days
[14] = 25 mg ZnSO4.7H2 O into each scrotum, 60 days after
[15] = 25 mg ZnSO4.7H2 O into each scrotum, 60 days after, p<0.001 vs control
[16] = 25 mg into each side of the scrotum
[17] = 25 mg into each side of the scrotum, FIGS. 1 and 2
[18] = rat, 0.5, 2.5 and 5.0 mg into the vas deferens, 60 days

tannic acid
sperm count (sexually mature cats; cats, one week, per testis II 10.0 mg tannic acid pH 6.8, III 5.0 mg tannic acid + 5.0 mg ZnSO4.7H2 O, control 230×10^6 /ml): zero | behaviour / male aggressiveness (sexually mature cats; cats, II 10.0 mg tannic acid, III 5.0 mg + 5.0 mg per testis): acted normally | testosterone level (sexually mature cats; cats, II 10.0 mg tannic acid, III 5.0 mg + 5.0 mg per testis, control 6.8±0.2 ng/ml): 4.1 ± 0.3 ng/mL | weight gain (sexually mature cats; in vivo): None of the animals in Groups II or III gained any more weight than those in Group I | BODY WEIGHT Final (purebred Angus bulls): 826 | % Fat (purebred Angus bulls): 18.0% | % Protein (purebred Angus bulls): 18.3% | Rate of Gain (purebred Angus bulls): 1.40 lbs/day | rate of gain vs surgically castrated animals (purebred Angus bulls): faster rate of gain than the surgically castrated animals | Epididymis weight (weaned male rats): 0.31 ± 0.07 gm | Prostate weight (weaned male rats): 0.10 ± 0.05 gm | Seminal Vesicles Wt. (weaned male rats): 0.14 ± 0.04 gm | Testes weight (weaned male rats): 0.46 ± 0.12 gm | muscular appearance [1]: better muscular appearance than those in the control group

O=S(=O)([O-])[O-].[Zn+2] [zinc sulfate]
testosterone level [2]: decrease in the testosterone level | pregnancy of females mated ([2]; mated with females in heat): No pregnancy resulted | weight of the male reproductive organs ([2]; reduction increased with the dose): significant reduction in the weight of the male reproductive organs | BODY WEIGHT Final (purebred Angus bulls): 910 | % Fat (purebred Angus bulls): 20.9% | % Protein (purebred Angus bulls): 17.9% | Rate of Gain (purebred Angus bulls): 1.54 lbs/day | rate of gain vs surgically castrated animals (purebred Angus bulls): faster rate of gain than the surgically castrated animals | diffusion of zinc beyond epididymis and prostate (spermatogenesis / testis): no diffusion beyond that | diffusion of zinc to the epididymis and prostate (spermatogenesis / testis): some diffusion of the zinc to the epididymis and prostate | Epididymis weight [3, 7]: 0.94 ± 0.03 gm | Prostate weight [3, 7]: 0.44 ± 0.03 gm | Seminal Vesicles weight [3, 7]: 0.73 ± 0.04 gm | Testes weight [3, 7]: 2.88 ± 0.17 gm | Testosterone ng/ml serum [3, 7]: 6.25 ± 1.68 ng/mL | Epididymis weight [3, 8]: 0.91 ± 0.04 gm | Prostate weight [3, 8]: 0.42 ± 0.02 gm | Seminal Vesicles weight [3, 8]: 0.78 ± 0.04 gm | Testes weight [3, 8]: 2.94 ± 0.13 gm | Testosterone ng/ml serum [3, 8]: 6.57 ± 0.58 ng/mL | histological changes in the male reproductive organs [3, 9]: No histological changes were observed | testosterone levels [3, 9]: no change was noted in testosterone levels | weight of the testes, epididymis, prostate or seminal vesicles [3, 9]: no significant change in the weight of the testes, epididymis, prostate or seminal vesicles | impregnation of females in heat ([3]; treated orally, mated with females in heat): impregnated the females | Testosterone ng/ml serum [4, 10]: 6.79 ± 1.34 ng/mL | Epididymis weight [4, 10]: 0.90 ± 0.02 gm | Prostate weight [4, 10]: 0.42 ± 0.04 gm | Seminal Vesicles weight [4, 10]: 0.72 ± 0.04 gm | Testes weight [4, 10]: 2.94 ± 0.03 gm | Testosterone ng/ml serum [4, 11]: 6.87 ± 0.58 ng/mL | Epididymis weight [4, 11]: 0.90 ± 0.02 gm | Prostate weight [4, 11]: 0.46 ± 0.03 gm | Seminal Vesicles weight [4, 11]: 0.74 ± 0.04 gm | Testes weight [4, 11]: 3.05 ± 0.07 gm | Testosterone ng/ml serum [4, 12]: 6.30 ± 0.68 ng/mL | Epididymis weight [4, 12]: 0.88 ± 0.04 gm | Prostate weight [4, 12]: 0.41 ± 0.02 gm | Seminal Vesicles weight [4, 12]: 0.89 ± 0.07 gm | Testes weight [4, 12]: 2.74 ± 0.13 gm | histological changes in the sex organs [4, 13]: no histological changes were observed in the sex organs | testosterone level [4, 13]: testosterone level was not changed | weight of the testes, epididymis, prostate or seminal vesicles [4, 13]: no significant reduction in the weight of the testes, epididymis, prostate or seminal vesicles | impregnation of females in heat ([4]; treated intraperitoneally, mated with females in heat): impregnated the females | Prostate weight [5, 14]: 0.82 ± 0.06 gm | Seminal Ves weight [5, 14]: 1.20 ± 0.02 gm | Epididymis weight [5, 15]: 0.56 ± 0.06 gm | Testes weight [5, 15]: 1.42 ± 0.09 gm | weight of the prostate and seminal vesicles [5, 16]: no difference, however, in the weight of the prostate and seminal vesicles | weight of the testes and epididymis [5, 16]: significant reduction in the weight of the testes and epididymis | pregnancy of females mated ([5]; 25 mg into each side of the scrotum, mated with females in heat): No pregnancy resulted | testosterone levels ([5]; 25 mg into each side of the scrotum, vs control): no significant reduction in testosterone levels | condition of the Leydig cells (histology of the testes) [5, 17]: no difference in the condition of the Leydig cells | condition of the sex cells (histology of the testes) [5, 17]: significant change in the condition of the sex cells | impregnation of females ([6]; rat, 5.0 mg ZnSO4.7H2 O in the vas deferens, mated with females in heat): did not impregnate the females | effect on spermatogenesis [6, 18]: no effect on spermatogenesis | weight of the testes, prostate or seminal vesicles [6, 18]: no significant change in the weight of the testes, prostate or seminal vesicles | pregnancy of females mated ([6]; rat, 0.5 and 2.5 mg ZnSO4.7H2 O in the vas deferens, mated with females in heat): Pregnancy also occurred | Epididymis weight (weaned male rats): 0.10 ± 0.03 gm | Prostate weight (weaned male rats): 0.05 ± 0.02 gm | Seminal Vesicles Wt. (weaned male rats): 0.05 ± 0.02 gm | Testes weight (weaned male rats): 0.21 ± 0.04 gm

[Zn] [zinc]
toxic effects on human spermatozoa (human spermatozoa; under certain conditions): can exert toxic effects on human spermatozoa | sperm motility (human spermatozoa; zinc 5 μg/ml (0.075 mM), without albumin): markedly inhibited sperm motility | sperm motility (human spermatozoa; zinc 50 μg/ml (0.75 mM), with 4% albumin): only slightly inhibited sperm motility
